Broadly, the EC50 is the concentration needed to bring the measured effect to its halfway point. One may read the IC50 as the point on the concentration scale where inhibition reaches its midpoint.

The source of these data is PubChem BioAssay AID179 (DTP/NCI, 2004).

Active and inactive are the calls of the source.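 The calls were made as follows: active = compounds giving half or more protection of infected cells from virus-caused growth loss, again on retest; inactive = the rest.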

For the experiment, the system named is CEM cells HIV-1 protection, formazan growth assay. The experiment can be described thus: NCI AIDS Antiviral Assay. Particulars: for IC50: measured here: growth of uninfected CEM cells. Here is the method: The ability of compounds to protect human CEM cells from HIV-1 infection is measured as a screen for new compounds capable of inhibiting the HIV virus. Five concentrations of drug were tested on uninfected and infected cells and cell growth was measured using a soluble formazan assay. […] Compounds that provided at least 50% protection were retested. Compounds that provided at least 50% protection on retest were listed as moderately active. Compounds that reproducibly provided 100% protection were listed as confirmed active. […] Note that the inability to provide protection could be due to toxicity.

Take `COC(=O)[C@H](COC(C)(C)C)NC(=O)N[C@H](C)c1ccccc1`: the EC50 was above 200 µM and the IC50 was above 200 µM. Take `COc1ccc2nc3n(c2c1)C(c1c(F)cccc1Cl)SC3` (stereo unspecified): the EC50 is above 200 µM and the IC50 is above 200 µM.

For `c1ccc2sc(SSc3nc4ccccc4s3)nc2c1`, the EC50 was above 200 µM and the IC50 is above 200 µM. For the molecule `Cn1c(=O)c2c(-c3ccccc3)onc2n(C)c1=O`, the EC50 is above 200 µM and the IC50 was determined as 11 µM. Taken in the same sequence, the figures for `O=c1ccn(CC2(CO)CC(Cc3ccccc3)C2)c(=O)[nH]1` (stereo unspecified) were above 200 µM and above 200 µM. Taken in the same sequence, the figures for `COc1cccc(CCCNC(=O)Cc2ccccc2CO)c1` were above 200 µM and above 200 µM.

As to `O=C(NCCc1ccccc1)[C@H]1CCCC[C@@H]1CCO`, the EC50 is above 200 µM and the IC50 was above 200 µM. Take `CN(C)C(=S)SSSC(=S)N(C)C`: the EC50 is above 20 µM and the IC50 came to 0.513 µM. The corresponding values for `CCN(CC)CCCC(C)Nc1cc(/C=C/c2ccc(Cl)cc2)nc2cc(N(C)C)ccc12` (stereo unspecified) are above 145 µM and 0.871 µM. In the case of `O=P(O)(O)CN1CCNCCN(CP(=O)(O)O)CCN(CP(=O)(O)O)CCNCC1`, the EC50 is above 100 µM and the IC50 worked out at 64.6 µM. Taken in the same sequence, the figures for `CCCCCCCCCCCCCCCC=C(c1cc(Cl)c(O)c(C(=O)O)c1)c1cc(Cl)c(O)c(C(=O)O)c1` were 20.9 µM and 34.7 µM. The corresponding values for `c1csc(-c2cc(-c3cccs3)c(-c3ccsc3)s2)c1` are above 200 µM and 33.1 µM. Taken in the same sequence, the figures for `O=C1C2=C(c3ccccc31)C(c1ccc(Cl)cc1)N1C(=O)CCSC1=N2` (stereo unspecified) were above 49 µM and above 49 µM. Take `O=c1[nH]c(NCc2cccnc2)nc2nc[nH]c12`: the EC50 was above 200 µM and the IC50 was above 200 µM.

Consider `CC(=O)c1c2c(cc3c1CC1(C3)Cc3cc4c(c(C(=O)O)c3C1)CCCC4)CCCC2` (stereo unspecified) (tested in a mixture with another compound), for which the EC50 is above 200 µM and the IC50 was found to be 38.9 µM. The corresponding values for `Cc1cccc(C)c1NC(=O)C(=O)C(c1ccccc1Cl)S(=O)(=O)Cc1ccccc1Cl` (stereo unspecified) are 151 µM and above 200 µM. The corresponding values for `CC(C)(C)SS(=O)C(C)(C)C` (stereo unspecified) are above 97.7 µM and above 97.7 µM. Regarding `CN(C)CCC(O)(Cc1ccccc1)c1cccc(Cl)c1` (stereo unspecified), the EC50 is above 200 µM and the IC50 was determined as 87.1 µM. With `COC(=O)c1nc(-c2ccc(Cl)c(Cl)c2)nc2ccc(Cl)cc12`, the result was inactive. For `CN(C)CCn1c(=O)c2ccc(NCCNCCO)c3c(=O)c4ccccc4n(c1=O)c23`, the EC50 is above 0.2 µM and the IC50 worked out at 0.0112 µM. Taken in the same sequence, the figures for `CCOc1ccc(/C=C\c2ccnc3ccccc23)cc1OCC` were 0.0631 µM and 38 µM. Taken in the same sequence, the figures for `COc1ccc(/C=N/N/C(O)=c2/sc(=C(C#N)C#N)n(-c3ccccc3)c2=N)cc1` were above 9.12 µM and above 9.12 µM. Taken in the same sequence, the figures for `CC(C)(C)C1CCC2(CC1)c1[nH]c3ccccc3c1C1(CCC(C(C)(C)C)CC1)c1[nH]c3ccccc3c12` (stereo unspecified) were above 7.41 µM and above 7.41 µM. `C=C(C)C12CC3CC/C(=N/O)C(C1)C3(N1CCOCC1)C/C2=N/O` (stereo unspecified): the EC50 was above 200 µM and the IC50 was above 200 µM. Take `COc1cccc2c1C(=O)c1c(O)c3c(c(O)c1C2=O)CC1(O)CC3OC1(C)OC` (stereo unspecified): the EC50 was above 4.57 µM and the IC50 is above 4.57 µM. With `COc1cc2c(nn1)CCCC2`, the result was inactive. With `COc1ccc(S(=O)(=O)O)cc1N=N/C(=N/Nc1cc(S(=O)(=O)O)ccc1OC)C(=O)Nc1ccccc1`, the result was inactive. Consider `C/C=C/C#CC#CC(O)C(/C=C/CCCO)OC1OC(CO)C(O)C(O)C1O` (stereo unspecified), for which the EC50 is above 158 µM and the IC50 is above 158 µM. Regarding `C=CCC(C)C(=O)CP1(=O)OC(C)CCN1C(C)(C)C` (stereo unspecified), the outcome was inactive. Regarding `COc1nc(OC)n(C)c(=O)c1OP(=O)(OC)OC`, the EC50 is above 200 µM and the IC50 was above 200 µM.

`COc1cc(Oc2c(O)c(C)c(OC)c(C(C)=O)c2O)c(C(C)=O)c(O)c1C`: the EC50 was above 93.3 µM and the IC50 is above 93.3 µM. For `C1=Cc2ccccc2C(c2ccccc2)=NC1`, the EC50 was above 229 µM and the IC50 amounted to 145 µM. The corresponding values for `CCOC(=O)Cn1c(=O)c2nc(SC)sc2n(-c2ccc(C)cc2)c1=S` are above 200 µM and above 200 µM. Taken in the same sequence, the figures for `COc1cc[c]([Sb]([Br])([CH]=C(C)C)([CH]=C(C)C)[CH]=C(C)C)cc1` were above 380 µM and 3.02 µM. Regarding `COc1c(O)c2c(=O)cc(OC)c3c4c(OC)cc(=O)c5c(O)c(OC)c(C[C@H](C)O)c(c(c1CC(C)O)c23)c54` (stereo partly specified), the outcome was inactive.

As to `CC(C)(C)C(=O)/C=C/c1cccc([N+](=O)[O-])c1`, the EC50 is above 58.9 µM and the IC50 amounted to 8.71 µM. As to `COc1c(Cl)cc(C(=Cc2c(F)c(F)c(F)c(F)c2F)c2cc(Cl)c(OC)c(C(=O)O)c2)cc1C(=O)O`, the EC50 is 324 µM and the IC50 came to 490 µM. On to `O=C(N/C(=C/c1cccc([N+](=O)[O-])c1)c1nc2ccc(Cl)cc2[nH]1)c1ccccc1`, for which the outcome was inactive. For the molecule `O=[N+]([O-])c1nccn1CCC[n+]1cccc2ccccc21`, the EC50 was above 200 µM and the IC50 was above 200 µM. As to `O=C1c2cccnc2S(=O)(=O)N1c1ccc(Br)cc1`, the EC50 was above 200 µM and the IC50 came out at 74.1 µM. Regarding `O=C1C(CN2CCOCC2)CCCC1CN1CCOCC1` (stereo unspecified), the EC50 was above 4270 µM, the outcome was inactive and the IC50 was found to be 1.35 µM. For `CC(=O)Nc1ccc(SSc2ccc(NC(C)=O)c3cccnc23)c2ncccc12`, the EC50 is above 200 µM and the IC50 turned out to be 2.34 µM. Regarding `COC(=O)C(CC1=C(O)Nc2ccccc2N1)/C(=N/NC(N)=O)C(=O)Nc1ccccc1C` (stereo unspecified), the outcome was inactive. Turning to `COc1ccc(/C=C2\CCCCC2=O)cc1`, the outcome was inactive.

For the molecule `O=S(=O)(N/N=C/c1c(Cl)cccc1Cl)c1ccccc1`, the outcome was inactive. For the molecule `O=C1Nc2cccc3c2N(CCC3)C2=C1CCC2`, the EC50 is above 200 µM and the IC50 is above 200 µM.

As to `COC(=O)c1cnn2c1n[n+]([O-])c1ccccc12`, the EC50 was above 200 µM and the IC50 was above 200 µM.

Take `O=C(CC1(O)C(=O)Nc2ccccc21)c1ccncc1` (stereo unspecified): the result was inactive. As for `CN(C)c1ccc(-c2nc(-c3cc4c(ccc5ccccc54)oc3=O)cs2)cc1`, the EC50 is above 100 µM and the IC50 was above 100 µM. For `COc1cc(=O)n2c3ccccc3n(C)c2c1C#N`, the EC50 was above 100 µM and the IC50 stood at 56.2 µM. `COc1cc(C(=O)C/C(CCC(=O)Nc2ccc(Cl)cc2C)=N/NC(=O)C(N)=O)ccc1O`: the outcome was inactive. In the case of `CCOC(=O)c1c2c(nc3c1CCC/C3=C\c1ccccc1)/C(=C/c1ccccc1)CCC2`, the EC50 is above 200 µM and the IC50 is above 200 µM. For the molecule `O=C(NNC(=S)NC1CC(c2ccccc2)Oc2ccccc21)c1ccccc1` (stereo unspecified), the outcome was inactive.

For the molecule `Cc1ccc(-c2cc(=O)c3cc(C)c(C)c(C(=O)O)c3o2)cc1C`, the result was inactive.
